For 41 compounds, logD, Papp and microsomal CLint results are on record in ChEMBL document CHEMBL1156001, “Synthesis and in vitro DMPK profiling of a 1,2-dioxolane-based library with activity against Plasmodium falciparum” (Bioorg Med Chem Lett, 2009).

SMILES strings stand for the structures.

Data set [1] is described as follows: Octanol-PBS partition coefficient, log D at […] at pH 7.4. The class given is physicochemical.
Data set [2] is described as follows: Membrane permeability at […] at pH 6.5 to 7.4 after 4 hrs by PAMPA. The class given is ADME. The note with it: read-out: permeability. (PAMPA measures passive passage across an artificial lipid membrane.)
The nature of data set [3]: Intrinsic clearance in human liver microsomes after 10 to 45 mins by LCMS/MS analysis. The class given is ADME, Microsome. (In general: Liver microsomes are vesicles of endoplasmic reticulum, rich in cytochrome P450 enzymes.)
Data set [4] can be described thus: Intrinsic clearance in rat liver microsomes after 10 to 45 mins by LCMS/MS analysis. The class given is ADME, Microsome.

In turn, `COC(=O)c1ccc(CNC(=O)CC2(C)CC3(CCCCC3)OO2)cc1` (stereo not given) registered a logD in data set [1] of 3.4. The Papp at 4 h in data set [2] was 57 ×10⁻⁶ cm/s. `CC1(CC(=O)NCc2ccc(Cl)cc2Cl)CC2(CCCCC2)OO1` (stereo not given) came in with a pH-dependent lipophilicity (logD) in data set [1] greater than 3.5.

In the case of `CC1(CC(=O)NCc2cccc(I)c2)CC2(CCCCC2)OO1` (stereo not given), the logD in data set [1] worked out at 3.5. The same measure, in the same setting: in the case of `CC1(CC(=O)NCc2ccc(OC(F)(F)F)cc2)CC2(CCCCC2)OO1` (stereo not given) it was 3.2.

As for `CC1(CC(=O)NCCNc2ccnc3cc(Cl)ccc23)CC2(CCCCC2)OO1` (stereo not given), the logD in data set [1] was determined as 3.4. Also, the Papp at 4 h in data set [2] came out at 66 ×10⁻⁶ cm/s. Besides, the intrinsic metabolic clearance (microsomal CLint) in data set [3] is greater than 72 µL/min/mg; in data set [4], greater than 119 µL/min/mg. As to `CC1(CC(=O)NCc2ccc(-c3ccc(F)cc3)cc2)CC2(CCCCC2)OO1` (stereo not given), the logD in data set [1] worked out at 4.8. The same measure, in the same setting: then `CC1(CC(=O)NCc2cccc(Br)c2)CC2(CCCCC2)OO1` (stereo not given), with 3.3. Regarding `CCOc1ccccc1CNC(=O)CC1(C)CC2(CCCCC2)OO1` (stereo not given), in data set [1], the log distribution coefficient (logD) turned out to be 3.1. Also, the Papp at 4 h in data set [2] is 74 ×10⁻⁶ cm/s. `CC1(CC(=O)NCc2cccc(-c3ccccc3)c2)CC2(CCCCC2)OO1` (stereo not given) showed a logD in data set [1] of 3.8. The same measure, in the same setting: in the case of `CC1(CC(=O)NCc2ccc(Br)cc2F)CC2(CCCCC2)OO1` (stereo not given) it was 4.1; in that of `CC1(CC(=O)NCc2ccc(C(C)(C)C)cc2)CC2(CCCCC2)OO1` (stereo not given), 3.5; in that of `CC1(CC(=O)NCc2ccc(C(=O)O)cc2)CC2(CCCCC2)OO1` (stereo not given), 0.3. In the case of `CN(C)c1ccc(CNC(=O)CC2(C)CC3(CCCCC3)OO2)cc1` (stereo not given), the logD in data set [1] stood at 3.1. Besides, the Papp at 4 h in data set [2] amounted to 90 ×10⁻⁶ cm/s. In the same order, the values of `CC1(CC(=O)NCc2ccncc2)CC2(CCCCC2)OO1` (stereo not given) are 2.1 and 18 ×10⁻⁶ cm/s.

For `CC(C)(C)OC(=O)Nc1cccc(CCNC(=O)CC2(C)CC3(CCCCC3)OO2)c1` (stereo not given), the logD in data set [1] was 3. Take `CC1(CC(=O)NCc2ccccc2N)CC2(CCCCC2)OO1` (stereo not given): the pH-dependent lipophilicity (logD) in data set [1] turned out to be 2.5. The Papp at 4 h in data set [2] came to 37 ×10⁻⁶ cm/s. `Cc1cc(Cl)ccc1CNC(=O)CC1(C)CC2(CCCCC2)OO1` (stereo not given): the log distribution coefficient (logD) in data set [1] was found to be 4.2.

On to `CC1(CC(=O)NCc2cccc(C(F)(F)F)c2)CC2(CCCCC2)OO1` (stereo not given), for which the pH-dependent lipophilicity (logD) in data set [1] worked out at 4. Still for that read-out and setting: in the case of `CC1(CC(=O)NCc2cccc(Cl)c2Cl)CC2(CCCCC2)OO1` (stereo not given) it was 3.4.

In turn, `CC1(CC(=O)NCc2ccc3c(c2)OCC3)CC2(CCCCC2)OO1` (stereo not given) gave a logD in data set [1] of 2.8. Still for that read-out and setting: in the case of `CC1(CC(=O)NCc2cccc(Cl)c2)CC2(CCCCC2)OO1` (stereo not given) it was 3.7. `CC1(CC(=O)NCc2ccccn2)CC2(CCCCC2)OO1` (stereo not given): the log distribution coefficient (logD) in data set [1] was 2.3. For the same compound, the Papp at 4 h in data set [2] came to 33 ×10⁻⁶ cm/s. In the same order, the values of `CC1(CC(=O)NCc2ccc(-n3cccc3)cc2)CC2(CCCCC2)OO1` (stereo not given) are 4.3 and 70 ×10⁻⁶ cm/s. In the same order, the values of `CC1(CC(=O)NCc2ccc3c(c2)OCCO3)CC2(CCCCC2)OO1` (stereo not given) are 2.7 and 56 ×10⁻⁶ cm/s. `CC1(CC(=O)NCc2ccc(Oc3ccc(F)cc3)cc2)CC2(CCCCC2)OO1` (stereo not given) gave a pH-dependent lipophilicity (logD) in data set [1] greater than 3.5. The compound `CC1(CC(=O)NCc2ccc3c(c2)OCC=CO3)CC2(CCCCC2)OO1` (stereo not given) returned a logD in data set [1] of 3.1. In data set [2], the Papp at 4 h turned out to be 55 ×10⁻⁶ cm/s.

The compound `COc1cc(CNC(=O)CC2(C)CC3(CCCCC3)OO2)cc(OC)c1OC` (stereo not given) displayed a logD in data set [1] of 2.3. For the same compound, the Papp at 4 h in data set [2] was determined as 54 ×10⁻⁶ cm/s.

In data set [1], `CC1(CC(=O)NCc2ccc(-c3cc(Cl)cc(Cl)c3)cc2)CC2(CCCCC2)OO1` (stereo not given) had a log distribution coefficient (logD) greater than 3.5. As to `CC1(CC(=O)NCc2ccc(-c3cccs3)cc2)CC2(CCCCC2)OO1` (stereo not given), the pH-dependent lipophilicity (logD) in data set [1] came out at 3.7. Same read-out and setting: in the case of `CC1(CC(=O)NCc2ccc(Oc3cc(C(F)(F)F)cc(C(F)(F)F)c3)cc2)CC2(CCCCC2)OO1` (stereo not given) it was 3.2; in that of `CC1(CC(=O)NCc2cccc(Oc3ccc(Cl)cc3)c2)CC2(CCCCC2)OO1` (stereo not given), 3.2.

With `CC1(CC(=O)NCc2ccccc2N2CCCCC2)CC2(CCCCC2)OO1` (stereo not given), in data set [1], the logD is greater than 3.5. In addition, the Papp at 4 h in data set [2] came out at 62 ×10⁻⁶ cm/s. `CC1(CC(=O)NCc2ccc(N3CCOCC3)cc2)CC2(CCCCC2)OO1` (stereo not given) yielded a pH-dependent lipophilicity (logD) in data set [1] of 2.7.

`CSc1ccc(CNC(=O)CC2(C)CC3(CCCCC3)OO2)cc1` (stereo not given) yielded a log distribution coefficient (logD) in data set [1] of 3.7. The Papp at 4 h in data set [2] came out at 97 ×10⁻⁶ cm/s. In the same order, the values of `COc1cc(CNC(=O)CC2(C)CC3(CCCCC3)OO2)cc(OC)c1` (stereo not given) are 3.3 and 55 ×10⁻⁶ cm/s. As for `CC1(CC(=O)NCc2ccccc2OC(F)(F)F)CC2(CCCCC2)OO1` (stereo not given), the log distribution coefficient (logD) in data set [1] worked out at 3.3.

In turn, `CC1(CC(=O)NCc2ccccc2Sc2ccccc2CO)CC2(CCCCC2)OO1` (stereo not given) displayed a log distribution coefficient (logD) in data set [1] of 4.3. The Papp at 4 h in data set [2] worked out at 77 ×10⁻⁶ cm/s. In the same order, the values of `CC1(CC(=O)NCc2ccc([N+](=O)[O-])cc2)CC2(CCCCC2)OO1` (stereo not given) are 3.4 and 49 ×10⁻⁶ cm/s.

For the compound `CC1(CC(=O)NCc2ccc(S(N)(=O)=O)cc2)CC2(CCCCC2)OO1` (stereo not given), the log distribution coefficient (logD) in data set [1] is 1.4. In data set [1], `COc1cccc(CNC(=O)CC2(C)CC3(CCCCC3)OO2)c1` (stereo not given) gave a logD of 3.1. In addition, the Papp at 4 h in data set [2] turned out to be 65 ×10⁻⁶ cm/s.

As to `CC1(CC(=O)NCc2ccc(OC(F)F)cc2)CC2(CCCCC2)OO1` (stereo not given), the logD in data set [1] came out at 3.1.

A word on the logD: it is the decadic logarithm of the distribution of all forms, ionised or not, between an organic phase and buffer at a given pH. A lower logD goes with lower lipophilicity. One may read the microsomal CLint as a measure of how fast metabolising enzymes remove a compound, apart from limits set by blood flow. A high value points to rapid turnover.
